In assay [1] the target is T1, MALT1 (Homo sapiens (Human), UniProt Q9UDY8). Kind of assay: MALT1 degradation in JeKo-1 cells (capillary Western blotting). The conditions noted are these: 48 h incubation, read-out: EC50 for MALT1 degradation. It is filed as cell-based. On the procedure:
JeKo-1 cells (ATCC, USA) were cultured in RPMI 1640 supplemented with 10% FBS at 37° C., 5% CO2 in a humidified cell culture incubator. 1 ml of cells (1*10^6 cells per well) was transferred to each well of a 24-well plate (Greiner, #662160). Then 40 μl/well 25× compound (or DMSO) were added. Cells were incubated with compound in a humidified cell culture incubator for 48 h. At the end of incubation, cell suspension was transferred from wells into 2 ml tubes (Greiner, #623201), centrifuged at 300 g for 5 min and the supernatant was discarded. Then cell pellets were washed with cooled PBS. Cell lysates were prepared by adding 40 μl of RIPA lysis buffer (ProteinSimple, #040-483) to the cell pellet. […] Next, protein concentration in cell lysates was determined by Pierce™ Coomassie (Bradford) Protein Assay Kit (Thermo Scientific, #23200) according to manufacturer's instructions.
Levels of MALT1, Bcl10 and CYLD proteins in prepared cell lysates were assessed in capillary Western blotting system Jess (JS-3030, ProteinSimple) using 12-230 kDa Separation Module (ProteinSimple #SM-W004), Anti-Mouse Detection Module (ProteinSimple #DM-002) and Anti-Rabbit Detection Module (ProteinSimple #DM-001) according to manufacturer's instructions. […] Beta-actin was used as a loading control detected by anti-beta-actin primary antibodies (RnD Systems, #MAB8929) at 1:100 dilution.

For assay [2], the system named is IL-2 MALT1-dependent release in Jurkat cells. Kind of assay: cells. It is filed as cell-based. The conditions noted are these: Homo sapiens. The essentials:
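Jurkat cells (100,000/well, RPMI 1640 with 10% FBS, 37 °C, 5% CO2) were preincubated with compound or DMSO for 0.5-1 h, in duplicate. Stimulation used anti-CD3 (HIT3a) plus anti-CD28 antibodies for 24 h. IL-2 in supernatants was then measured by ELISA.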

For assay [3], the target named is T1, MALT1. Kind of assay: MALT1 enzymatic activity inhibition (fluorescence, Ac-LRSR-AMC substrate). It is filed as biochemical. The conditions noted are these: recombinant MALT1 1.5 ng/μl, Ac-LRSR-AMC 1 μM. The essentials: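 Recombinant human MALT1 (1.5 ng/μl final) preincubated 10 min at rt with compounds in 50 mM HEPES pH 7.2-7.4, 100 mM NaCl, 900 mM sodium citrate, 10 mM DTT; 1 μM Ac-LRSR-AMC then added. AMC fluorescence read at start and after 30 min 37 °C plus 30 min rt; difference gives signal, % inhibition fitted to IC50.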

Bounds are passed on as bounds.

T1 sequence (Q9UDY8 whole entry): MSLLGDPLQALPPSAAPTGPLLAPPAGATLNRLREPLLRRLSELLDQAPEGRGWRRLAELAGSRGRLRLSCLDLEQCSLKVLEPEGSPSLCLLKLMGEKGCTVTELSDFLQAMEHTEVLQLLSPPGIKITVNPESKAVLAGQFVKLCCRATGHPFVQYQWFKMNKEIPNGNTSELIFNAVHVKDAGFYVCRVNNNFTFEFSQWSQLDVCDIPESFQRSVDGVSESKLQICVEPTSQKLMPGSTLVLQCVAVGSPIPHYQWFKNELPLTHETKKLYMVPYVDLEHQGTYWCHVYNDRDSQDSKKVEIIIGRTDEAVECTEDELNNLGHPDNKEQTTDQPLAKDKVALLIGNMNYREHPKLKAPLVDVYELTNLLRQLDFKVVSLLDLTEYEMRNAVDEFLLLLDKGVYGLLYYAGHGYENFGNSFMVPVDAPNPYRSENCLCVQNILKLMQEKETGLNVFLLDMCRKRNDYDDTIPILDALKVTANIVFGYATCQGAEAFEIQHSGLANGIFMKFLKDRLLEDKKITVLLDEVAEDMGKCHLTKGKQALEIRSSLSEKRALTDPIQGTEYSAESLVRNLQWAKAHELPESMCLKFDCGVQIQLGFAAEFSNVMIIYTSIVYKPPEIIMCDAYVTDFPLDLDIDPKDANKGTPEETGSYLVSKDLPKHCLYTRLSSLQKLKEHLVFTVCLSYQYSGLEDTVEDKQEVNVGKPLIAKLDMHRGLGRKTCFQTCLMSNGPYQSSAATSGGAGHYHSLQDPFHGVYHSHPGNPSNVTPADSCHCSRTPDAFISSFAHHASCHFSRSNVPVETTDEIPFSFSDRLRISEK

As usually defined, the EC50 is the concentration that produces a half-maximal response. Consider `Cc1cc(NC(=O)Nc2cnc3ccnn3c2C2CCCO2)cnc1-c1noc(CCCCCC(=O)N2CCN(c3ccc4c(c3)CN(C3CCC(=O)NC3=O)C4=O)CC2)n1` (centres unmarked) [Compound 2, 1-[6-[5-[6-[4-[2-(2,6-dioxo-3-piperidyl)-1-oxo-isoindolin-5-yl]piperazin-1-yl]-6-oxo-hexyl]-1,2,4-oxadiazol-3-yl]-5-methyl-3-pyridyl]-3-(7-tetrahydrofuran-2-ylpyrazolo[1,5-a]pyrimidin-6-yl)urea], for which the DC50 on MALT1 [1] worked out at 85 nM. Further, the EC50 is 500 to 1000 nM in assay [2] (Jurkat cells stimulated with antiCD3/antiCD28 for 24 h, IL-2 ELISA, read-out: EC50, IL-2 MALT1-dependent release inhibition) and at most 0.2 µM on MALT1 [3].

In general, CC50 refers to the concentration at which the toxic effect on the cells reaches its halfway point. As for `Cc1cc(NC(=O)Nc2cnc3ccnn3c2C2CCCCC2)cnc1-c1noc(CCCCC(=O)N2CCN(c3ccc4c(c3)CN(C3CCC(=O)NC3=O)C4=O)CC2)n1` (centres unmarked) [Compound 124, 1-(7-cyclohexylpyrazolo[1,5-a]pyrimidin-6-yl)-3-[6-[5-[5-[4-[2-(2,6-dioxo-3-piperidyl)-1-oxo-isoindolin-5-yl]piperazin-1-yl]-5-oxo-pentyl]-1,2,4-oxadiazol-3-yl]-5-methyl-3-pyridyl]urea], the CC50 in assay [2] (Jurkat, 24 h, read-out: CC50 (IL-2 MALT1-dependent release inhibition)) fell in the range of 1000 to 5000 nM. Besides, the EC50 on MALT1 [3] was at most 0.2 µM.

The values are drawn from patent publication US20250163066A1, “PROTACs of MALT1” (TEGID THERAPEUTICS, INC., priority 2022, published 2025).
